From patent publication US10336691B2, “Pesticidally active oxime and hydrazone derivatives” (Syngenta Participations AG, priority 2015, dated 2019)

What was measured:
Plutella xylostella = Plutella xylostella (diamond back moth) artificial diet test, L2 larvae; format: in vivo; conditions: 120 h, application rate of 200 ppm, 5 days after infestation, in comparison to untreated samples, read-out: effect in at least one of the two categories (mortality or growth inhibition)
Experimental: Plutella xylostella (Diamond Back Moth)
(§1) 24-well microtiter plates with artificial diet were treated with aqueous test solutions prepared from 10,000 ppm DMSO stock solutions by pipetting. After drying, the plates were infested with L2 larvae (10 to 15 per well). The samples were assessed for mortality and growth inhibition in comparison to untreated samples 5 days after infestation.

Diabrotica balteata = Diabrotica balteata (corn root worm) maize sprout spray test, L2 larvae; format: in vivo; conditions: 96 h, read-out: effect in at least one of the two categories (mortality or growth inhibition); for percent effect (mortality or growth inhibition) at 200 ppm: application rate of 200 ppm, 4 days after infestation, in comparison to untreated samples
Experimental: Diabrotica balteata (Corn Root Worm)
as §1, with “Maize sprouts, placed on an agar layer in 24-well” for “24-well”, “plates” for “plates with artificial diet”, “spraying.” for “pipetting.”, “(6” for “(10”, “10” for “15”, “4” for “5”

Row | Structure (SMILES) | percent effect (mortality or growth inhibition) at 200 ppm (Plutella xylostella) | percent effect (mortality or growth inhibition) at 200 ppm (Diabrotica balteata) | percent control (mortality or growth inhibition) at 200 ppm (Diabrotica balteata)
1 | C/C(=N\Oc1ccc(/C=N/NC(=O)Nc2ccccc2C(C)C)cc1)c1ccc(OC(F)(F)F)cc1 [Compound 6, 1-(2-isopropylphenyl)-3-[[4-[1-[4-(trifluoromethoxy)phenyl]ethylidene-amino]oxyphenyl]methylene-amino]urea] | ≥ 80% | ≥ 80% | –
2 | C/C(=N\Oc1ccc(/C=N/NC(=S)Nc2ccccc2C(C)C)cc1)c1ccc(OC(F)(F)F)cc1 [Compound 8, 1-(2-isopropylphenyl)-3-[[4-[1-[4-(trifluoromethoxy)phenyl]ethylidene-amino]oxyphenyl]methylene-amino]thiourea] | ≥ 80% | ≥ 80% | –
3 | C/C(=N\Nc1ccc(/C=N/OC(=O)Nc2c(C)cccc2C)cc1)c1ccc(C(F)(F)F)cc1 [Compound 12, [[4-[2-[1-[4-(trifluoromethyl)phenyl]ethylidene] hydrazino]phenyl]methyleneamino] N-(2,6-dimethylphenyl)carbamate] | – | – | ≥ 80%
4 | C/C(=N\Nc1ccc(/C=N/NC(=O)Nc2ccccc2C(C)C)cc1)c1cccc(OC(F)(F)F)c1 [Compound 13, 1-(2-isopropylphenyl)-3-[[4-[2-[1-[3-(trifluoromethoxy)phenyl]ethylidene] hydrazino]phenyl]methyleneamino] urea] | – | ≥ 80% | –
5 | C/C(=N\Nc1ccc(/C=N/NC(=S)Nc2ccccc2C(C)C)cc1)c1cccc(OC(F)(F)F)c1 [Compound 14, 1-(2-isopropylphenyl)-3-[[4-[2-[1-[3-(trifluoromethoxy)phenyl]ethylidene] hydrazino]phenyl]methyleneamino] thiourea] | ≥ 80% | ≥ 80% | –
6 | C/C(=N\Nc1ccc(/C=N/NC(=O)Nc2c(C)cccc2C)cc1)c1cccc(OC(F)(F)F)c1 [Compound 15, 1-(2,6-dimethylphenyl)-3-[[4-[2-[1-[3-(trifluoromethoxy)phenyl]ethylidene]hydrazino]phenyl]methylene-amino]urea] | ≥ 80% | – | –
7 | C/C(=N\Nc1ccc(/C=N/NC(=S)Nc2c(C)cccc2C)cc1)c1cccc(OC(F)(F)F)c1 [Compound 16, 1-(2,6-dimethylphenyl)-3-[[4-[2-[1-[3-(trifluoromethoxy)phenyl]ethylidene] hydrazino]phenyl]methylene-amino]thiourea] | ≥ 80% | ≥ 80% | –
8 | C/C(=N\Nc1ccc(/C=N/NC(=S)Nc2c(C)cccc2C)cc1)c1ccccc1OC(F)(F)F [Compound 18, 1-(2,6-dimethylphenyl)-3-[[4-[2-[1-[2-(trifluoromethoxy)phenyl]ethylidene] hydrazino]phenyl]methylene-amino]thiourea] | ≥ 80% | – | –
9 | C/C(=N\Nc1ccc(/C=N/NC(=S)Nc2ccccc2C(C)C)cc1)c1ccccc1OC(F)(F)F [Compound 23, 1-(2-isopropylphenyl)-3-[(E)-[4-[(2E)-2-[1-[2-(trifluoromethoxy)phenyl]ethylidene] hydrazino]phenyl]methylene-amino]thiourea] | ≥ 80% | – | –
10 | FC(F)(F)Oc1ccc2c(c1)CC/C2=N\Oc1ccc(/C=N/NC(=S)Nc2ccccc2C(F)(F)F)cc1 [Compound 30, 1-[[4-[[5-(trifluoromethoxy)indan-1-ylidene]amino]oxyphenyl]methylene-amino]-3-[2-(trifluoromethyl)phenyl]thiourea] | – | ≥ 80% | –
11 | C/C(=N\Oc1ccc(/C=N/NC(=S)Nc2ccccc2C(F)(F)F)cc1)c1ccc(OC(F)(F)F)cc1 [Compound 31, 1-[[4-[1-[4-(trifluoromethoxy)phenyl]ethylidene-amino]oxyphenyl]methylene-amino]-3-[2-(trifluoromethyl)phenyl]thiourea] | – | ≥ 80% | –
